Source: patent US8618169B2, “Derivatives of N-phenylanthranilic acid and 2-benzimidazolone as potassium channel and/or neuron activity modulators” (Ramot at Tel-Aviv University Ltd., priority 2002, dated 2013)
Values joined by “and” are separate entries in the source; they are usually repeats but may differ in a detail not shown here. Identical values can stand only once.

What was measured:
KCNQ2/3 channels = molecular target: T1, KCNQ2/3 channels (Homo sapiens, UniProt O43525+O43526); test: KCNQ2/3 current in transfected CHO cells, whole-cell patch-clamp; assay type: cell-based
T1 construct: expressed in transfected cells; host or cells: CHO cells

rat cortical neurons = test: Evoked and spontaneous action potential activity of cultured rat cortical neurons, current-clamp; assay type: cell-based
M-current = molecular target: T2, M-current (Rattus norvegicus, UniProt O88943+O88944); test: Native M-current of cultured rat cortical neurons, voltage-clamp; assay type: cell-based
T2 construct: the native M-current from pyramidal-like neurons was recorded; endogenous in cells; host or cells: primary cortical neurons from Sprague Dawley rat embryos (E18)

KCNQ1/KCNE1 = molecular target: T3, KCNQ1/KCNE1 (Homo sapiens, UniProt P51787); test: KCNQ1/KCNE1 (IKS) current amplitude; assay type: cell-based; settings: 50 μM, test potentials −50 to 0 mV, data not shown
T3 construct: expressed in transfected cells; host or cells: Xenopus oocytes (stated for Compound 6)
Method: Briefly, two-electrode voltage-clamp measurements were performed 3-5 days following cRNA microinjection into oocytes. Oocytes were bathed in a modified ND96 solution containing (in mM): 96 NaCl, 2 KCl, 1 MgCl2, 0.1 CaCl2 and 5 HEPES titrated to pH=7.4 with NaOH. Whole-cell currents were recorded at room temperature (20° C.-22° C.) using a GeneClamp 500 amplifier (Axon Instruments, Foster City, Calif., USA). […] Current signals were filtered at 0.5 kHz and digitized at 2 kHz.
The current amplitude of the various channels was measured from a −80 mV holding potential.

[1] = system: electroshock-induced seizures; test: Maximal electroshock seizure (MES) test in ICR mice; assay type: in vivo
Method: All animals were treated in accordance with the Guide for the Care and Use of Laboratory Animals as adopted and promulgated by the U.S. National Institutes of Health. The procedures followed for experimentation and maintenance of the animals were approved by the animal research ethics committee of Tel Aviv University and in accordance with the Guide for the Care and Use of Laboratory Animals (1996. National Academy of Sciences, Washington D.C). […] electroshock were induced in adult mice by means of two transcorneal electrodes delivering an alternative current of 50 mA at 60 Hz for 0.2 sec using rodent shocker (Hugo Sachs Electronik, type 221). […] The tested compounds were dissolved in 0.9% saline were administered intraperitoneally either 30 minutes or 2 hours before the electroshock was performed. Animals failing to show tonic hind limb extension were scored as protected and were expressed in percentage.
Five groups of 10 ICR mice each received intraperitoneally saline (control) or meclofenamic acid (Compound 1) at 25 mg/kg, 50 mg/kg, 100 mg/kg and 150 mg/kg and were subjected 30 minutes later to an electric shock (50 mA, 0.2 second duration, 60 Hz).
In view of the strong depressing activity of Compound 6 on cortical neurons, the anticonvulsant activity in mice subjected to seizures produced by electroshock was examined, using the MES test described above. Compound 6 dissolved in saline was injected intraperitoneally (in a volume of 10 ml/kg) at doses ranging from 6 mg/kg to 20 mg/kg to ICR adult mice and its anticonvulsant activity was compared with saline. Twenty minutes after drug administration, seizures were produced by electroshock (50 mA, 0.2 second duration, 60 Hz).

KCNQ2/Q3 = KCNQ2/Q3 (Homo sapiens, UniProt O43525+O43526); test: KCNQ2/Q3 current in Xenopus oocytes, two-electrode voltage-clamp; assay type: cell-based; parameters: expressed in transfected cells; host or cells: Xenopus oocytes (cRNA microinjection); settings: for increase of KCNQ2/Q3 currents: at −40 mV
Method: Current measurements in Xenopus oocytes were performed as described in the art [Peretz et al. J. Physiol 545:751-766 (2002)]. Briefly, two-electrode voltage-clamp measurements were performed 3-5 days following cRNA microinjection into oocytes. Oocytes were bathed in a modified ND96 solution containing (in mM): 96 NaCl, 2 KCl, 1 MgCl2, 0.1 CaCl2 and 5 HEPES titrated to pH=7.4 with NaOH. Whole-cell currents were recorded at room temperature (20° C.-22° C.) using a GeneClamp 500 amplifier (Axon Instruments, Foster City, Calif., USA). Glass microelectrodes (A-M Systems, Inc., Carlsborg, Wis., USA) were filled with 3M KCl and had tip resistances of 0.5-1.5 MΩ. Stimulation of the preparation, data acquisition and analyses were performed using the pCLAMP 6.02 software (Axon Instruments, Foster City, Calif., USA) and a 586 personal computer Pentium 4 interfaced with a Digidata 1200 interface (Axon Instruments, Foster City, Calif., USA). Current signals were filtered at 0.5 kHz and digitized at 2 kHz.
Data analysis was performed using the Clampfit program (pClamp 8.1, Axon Instruments, Foster City, Calif., USA), Microsoft Excel 98 (Microsoft Corp., Redmond, Wash., USA), Axograph 4.6 (Axon Instruments, Foster City, Calif., USA) and Prism 2.0 (GraphPad, San Diego, Calif., USA). Leak subtraction was performed off-line, using the Clampfit program of the pClamp 8.1 software. To analyze the KCNQ2/3 channel deactivation, a single exponential fit was applied to the tail currents. Chord conductance (G) was calculated by using the equation: G=I/(V−Vrev) where I corresponds to the current amplitude measured at the end of the pulse and Vrev, the calculated reversal potential assumed to be −90 mV in CHO cells and −98 mV in Xenopus oocytes. G was estimated at various test voltages V and then, normalized to a maximal conductance value, Gmax, calculated at +40 mV. Activation curves were fitted by a Boltzmann distribution: G/Gmax=1/{1+exp[(V50−V)/s]} where V50 is the voltage at which the current is half-activated and s is the slope factor. All data were expressed as mean±SEM. Statistically significant differences were assessed by Student's t-test.
Data are expressed as mean±SEM of 5-8 separate experiments.

[2] = 100 μM, prepulse −20 mV, tail −60 mV

## Cc1ccc(Cl)c(Nc2ccccc2C(=O)O)c1Cl [Compound 1, Meclofenamic acid]
KCNQ2/3 channels; 100 μM, CHO cells
  V50 of KCNQ2/3 current activation with compound: −42.34±2.08 mV
  leftward shift in the voltage-dependence of KCNQ2/3 current activation: 22.7 mV
  slope parameter s of the Boltzmann fitting curve: −10.50±0.93 mV/e fold
KCNQ2/3 channels; [2]
  increase of the time constant for deactivation: about 2 fold
  time constant for deactivation τdeact with compound: 167.5 ± 11.6 ms
KCNQ2/3 channels; CHO cells
  effect on KCNQ2/3 activation kinetics: did not affect
KCNQ2/3 channels; CHO cells, control −50 mV
  voltage threshold of KCNQ2/3 current activation upon exposure: about −60 mV
KCNQ2/3 channels; at −30 mV, CHO cells
  increase of KCNQ2/3 current amplitude: > 2.5 fold
KCNQ2/3 channels; at −40 mV, CHO cells
  increase of KCNQ2/3 current amplitude: > 5 fold
KCNQ2/3 channels; at −50 mV, CHO cells
  increase of KCNQ2/3 current amplitude: more than 10 fold
KCNQ2/3 channels; potentials around −60/−50 mV
  increase in KCNQ2/3 current amplitude: more than 10 fold
KCNQ2/3 channels; train protocol, cells stepped to −20 mV
  increase of the current amplitude: up to 72%
KCNQ2/3 channels; train protocol, stepped to −20 mV, control 844±130 pA
  KCNQ2/3 current amplitude with compound: 1451±164 pA
Rat cortical neurons; 10 μM
  effect on spontaneous spiking activity: completely but reversibly inhibited
Rat cortical neurons; 10 μM, 100 pA depolarizing current for 800 mseconds, control 20±1
  number of evoked action potentials with compound: 1±1
Rat cortical neurons; 5-20 μM
  effect on evoked potentials: reversibly inhibited
M-current; 10 μM, step from −80 mV to −40 mV
  enhancement of the linopirdine-sensitive outward current: 465±134 percents of control
KCNQ1/KCNE1
  effect on heteromeric KCNQ1/KCNE1 currents: not enhanced
[1]; 50 mg/kg i.p., 30 minutes before electroshock
  % Protection: 17% and 17 (6) %
[1]; 100 mg/kg i.p., 30 minutes before electroshock
  % Protection: 75 (5) %
[1]; 100 mg/kg i.p., 2 hours before electroshock
  % Protection: 25 (4) %
[1]; 150 mg/kg intraperitoneally
  adverse effect in mice: sedation
[1]; 200 mg/kg i.p., 30 minutes before electroshock
  % Protection: toxic
[1]; 200 mg/kg i.p., 2 hours before electroshock
  % Protection: toxic
[1]; Example 9: 50 mg/kg intraperitoneally, 30 minutes before shock
  mice protected from electroshock: 50%
[1]; Example 9: 100 mg/kg intraperitoneally, 30 minutes before shock
  protection from electroshock seizures: fully prevented seizures
[1]; mouse, in vivo
  toxic effects at high doses: pro-convulsive toxic effects and hyperactivity
KCNQ2/Q3; 25 μM, Xenopus oocytes
  leftward shift in the voltage-dependence of KCNQ2/Q3 current activation: −15.9 mV
KCNQ2/Q3; 25 μM, Xenopus oocytes, control −28.6±2.9 mV
  V50 of KCNQ2/Q3 current activation with compound: −44.5±3.1 mV
KCNQ2/Q3; 25 μM
  increase of KCNQ2/Q3 currents: 1.75 fold
KCNQ2/Q3; 25 μM, oocyte membrane stepped from −80 mV to −40 mV
  increase in KCNQ2/Q3 current amplitude: 53±8%
KCNQ2/Q3; increasing concentrations, from −56±2 mV
  oocyte resting membrane potential after compound: −72±3 mV
KCNQ2/Q3; increasing concentrations, read-out: EC50 of hyperpolarization of the oocyte resting membrane potential
  EC50: 11.7 ± 5.2 µM

## O=C(Cc1ccccc1Nc1c(Cl)cccc1Cl)NCCOCCO [Compound 6]
KCNQ2/3 channels; 25 μM, CHO cells
  leftward shift in the voltage-dependence of KCNQ2/3 activation: about 13 mV
KCNQ2/3 channels; 25 μM, CHO cells, control −30.9±4.1 mV
  V50 of KCNQ2/3 activation with compound: −43.45±2.3 mV
KCNQ2/3 channels; 25 μM, train protocol, stepped to −50 mV
  increase of the current amplitude: up to 220%
KCNQ2/3 channels; CHO cells
  effect on deactivation kinetics of KCNQ2/3 channels: slowed down
KCNQ2/3 channels; at −50 mV, CHO cells, read-out: EC50 of concentration-dependent current increase
  EC50: 7 ± 1 µM
Rat cortical neurons
  effect on evoked and spontaneous cortical neuron activity: depress
Rat cortical neurons; 5 μM-20 μM, within less than 2 minutes
  effect on spontaneous action potentials: profound depression of spontaneous action potentials
Rat cortical neurons; 10 μM
  effect on number of evoked action potentials: reduced drastically and reversibly
M-current; cortical neurons, from −50 mV to −70 mV
  negative shift in the threshold of M-current activation: approximately 20 mV
[1]; Mus musculus, intraperitoneal 6-20 mg/kg, twenty minutes before electroshock, read-out: ED50 of protective effect against seizures
  ED50: 8.7 mg/kg
KCNQ2/Q3; 25 μM
  increase of KCNQ2/Q3 currents: 1.95 fold
